In experiment [1] the test system is DNCB-induced atopic dermatitis mice. Description: DNCB-induced dermatitis mouse model, skin thickness. In kind it is in vivo, female BALB/C mice. The following applies: for Epidermal thickness / Dermis thickness: 50 mg/mL, 100 μL applied to back skin, 11 times once a day, Mean ± SD, n = 8; for Epidermal thickness: model 137.76, blank 48.93; for Dermis thickness: model 500.71, blank 194.70; for reduction of the thickness of the dermis compared with Crisaborole / reduction of the thickness of the epidermis compared with Crisaborole / reduction of the thickness of the dermis compared with the compound Y5 / reduction of the thickness of the epidermis compared with the compound Y5: 50 mg/mL topical; for reduction of the thickness of the dermis compared with Crisaborole / reduction of the thickness of the epidermis compared with Crisaborole: statistical comparison vs Crisaborole group; for reduction of the thickness of the dermis compared with the compound Y5 / reduction of the thickness of the epidermis compared with the compound Y5: statistical comparison vs Y5 group. How it is done: After female BALB/C mice are selected, each weighing 18-22 g, for animal adaptive breeding for 7 days, these are randomly divided into a blank group, a model group, a positive drug Crisaborole group, a hexadecadrol group, and compound groups, with 8 in each group. Except for the mice in the blank group, the remaining mice are applied with 100 μL of a 1% DNCB solution [acetone: olive oil=4:1 (V/V)] on the skin of the back of the shaved mice, and applied continuously for 3 days once a day. Then, dosing treatment starts 4 days after the mice are housed, and the test drug is applied to the back of each group of animals, wherein animals in the blank group and the model group are applied with a corresponding solvent, the positive drug Crisaborole group and hexadecadrol group are applied with 50 mg/mL of a corresponding drug, and the administration group is applied with 50 mg/mL of a corresponding compound, with 100 μL for each mouse; after application of 4 hours, 0.5% DNCB solution is applied for secondary challenge, and repeated administration and challenge treatment are performed 11 times, once a day. 24 hours after the last administration, the animals are sacrificed, and the back skins (1×0.4 cm^2) are taken and fixed in 10% formalin buffer to make pathological sections and perform HE staining; then, the epidermal and dermal layers are observed under a 100× […], and 5 areas are selected for detection of and recording the skin thickness, and then the average value is taken to represent the final thicknesses of the epidermal layer and dermal layer, respectively.

The target in the next experiment is T1, PDE4A enzyme (Homo sapiens, UniProt P27815).
T1 construct: GST (N); host or cells: Sf9 insect cells (baculovirus)
Put plainly: Inhibition of the activity of PDE4A enzyme (fluorescence polarization, Transcreener AMP2/GMP2). Type of experiment: biochemical. The settings on record: 1 h, mean ± spread; for remaining activity at 0.01 µM: 0.01 μM compound; for remaining activity at 0.1 µM: 0.1 μM compound; for remaining activity at 1 µM: 1 μM compound. The method, then:
The PDE4A enzyme expressed from baculovirus is labeled with N-terminal GST from Sf9 insect cells. A specified PDE4A enzyme and 1 mM cAMP are added to the newly prepared pH 7.5 Tris buffer, the enzyme solution is transferred into reaction wells, and the compound is sonicated in DMSO and then added to the enzyme solution for culturing for 10 minutes at room temperature; the substrate solution is poured into the reaction wells to initiate the reaction and cultured at room temperature for 1 hour, and a detection tracer (AMP2/GMP2 AlexaFluor 633 Tracer) and an antibody (Transcreener® AMP2/GMP2 Antibody) are added to stop the reaction for culturing for 90 minutes with gentle mixing. […]

These results are taken from patent US11161860B2, “Compound having effects of inhibiting phosphodiesterase 4, preparation method thereof and pharmaceutical use thereof” (Hefei Industrial Pharmaceutical Institute Co., Ltd., priority 2018, dated 2021).

The structures appear in SMILES notation. Marks after values point to notes of the source that are not given here.

T1 sequence (P27815 whole entry, species assumed): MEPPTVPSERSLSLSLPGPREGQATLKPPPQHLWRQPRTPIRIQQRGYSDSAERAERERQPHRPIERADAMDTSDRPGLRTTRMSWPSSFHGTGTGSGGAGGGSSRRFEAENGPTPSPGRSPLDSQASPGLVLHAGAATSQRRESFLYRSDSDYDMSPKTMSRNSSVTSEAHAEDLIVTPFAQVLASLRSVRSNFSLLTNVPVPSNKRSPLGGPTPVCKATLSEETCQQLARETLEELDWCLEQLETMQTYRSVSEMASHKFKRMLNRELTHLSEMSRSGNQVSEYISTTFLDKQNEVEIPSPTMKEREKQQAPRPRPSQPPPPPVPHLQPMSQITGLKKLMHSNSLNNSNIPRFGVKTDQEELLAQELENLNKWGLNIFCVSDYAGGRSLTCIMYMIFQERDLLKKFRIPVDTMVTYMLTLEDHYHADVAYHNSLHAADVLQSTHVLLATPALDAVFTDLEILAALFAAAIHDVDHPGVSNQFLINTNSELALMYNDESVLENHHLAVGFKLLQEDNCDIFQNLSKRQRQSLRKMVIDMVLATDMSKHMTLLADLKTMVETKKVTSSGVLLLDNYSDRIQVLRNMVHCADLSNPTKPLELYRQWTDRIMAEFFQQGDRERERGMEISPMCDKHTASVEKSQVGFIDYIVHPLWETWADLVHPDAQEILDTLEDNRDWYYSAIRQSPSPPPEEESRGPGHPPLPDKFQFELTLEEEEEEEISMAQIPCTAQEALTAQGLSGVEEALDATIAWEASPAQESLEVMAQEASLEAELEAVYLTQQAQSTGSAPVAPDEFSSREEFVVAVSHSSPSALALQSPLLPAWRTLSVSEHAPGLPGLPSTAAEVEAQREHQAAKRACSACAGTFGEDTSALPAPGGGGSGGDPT

Turning to `CC(=O)c1ccc2nc(Oc3ccc4c(c3)COB4O)cc(C(F)(F)F)c2c1` [PD-19], in experiment [1], the Epidermal thickness is listed as 96.05 ± 9.75 μm and the Dermis thickness was 441.12 ± 30.17 μm. For the same compound, on PDE4A enzyme, the remaining activity at 0.01 µM worked out at 4.22 ± 0.86%, the remaining activity at 0.1 µM turned out to be 1.56 ± 0.48% and the remaining activity at 1 µM was 0.54 ± 0.47%.
`C[C@@H]1C[C@H]2[C@@H]3CCC4=CC(=O)C=C[C@]4(C)[C@@]3(F)[C@@H](O)C[C@]2(C)[C@@]1(O)C(=O)CO` [hexadecadrol, reference compound]: in experiment [1], the Epidermal thickness was 72.14 ± 10.58 ^a a μm and the Dermis thickness is on record as 377.32 ± 22.05**^a a μm. Also, the “reduction of the thicknesses of the epidermal layer and dermal layer” value in experiment [1] (vs model group, P<0.01) is “significantly reduce the thicknesses of the epidermal layer and dermal layer”.
In experiment [1], `OB1OCc2cc(Oc3ccc4cc(C(F)(F)F)ccc4c3)ccc21` [PD-23] registered an Epidermal thickness of 97.34 ± 8.36 μm and a Dermis thickness of 435.56 ± 27.08 μm. On PDE4A enzyme, this compound returned a remaining activity at 0.01 µM of 9.26 ± 0.73%, a remaining activity at 0.1 µM of 4.51 ± 0.94% and a remaining activity at 1 µM of 2.45 ± 0.76%.
`OB1OCc2cc(Oc3cc(F)c4cc(C(F)(F)F)ccc4n3)ccc21` [PD-21]: in experiment [1], the “reduction of the thickness of the dermis compared with Crisaborole” value is listed as “significantly reduce the thickness of the dermis of dermatitis mice (P≤0.01)”, the “reduction of the thickness of the epidermis compared with Crisaborole” value was “significantly reduce the thickness of the epidermis (P≤0.01)”, the “reduction of the thickness of the dermis compared with the compound Y5” value is listed as “significantly reduce the thickness of the dermis of dermatitis mice (P≤0.05)” and the “reduction of the thickness of the epidermis compared with the compound Y5” value was “significantly reduce the thickness of the epidermis (P≤0.01)”. Further, in experiment [1], the Epidermal thickness is 70.62 ± 7.12 ^aa μm and the Dermis thickness is on record as 383.34 ± 24.40**^##a μm. On PDE4A enzyme, the remaining activity at 0.01 µM is 1.64 ± 0.55%, the remaining activity at 0.1 µM was 0.33 ± 0.23% and the remaining activity at 1 µM stood at 0.28 ± 0.14%.
For `OB1OCc2cc(Oc3ccc4c(C(F)(F)F)cccc4n3)ccc21` [PD-7], in experiment [1], the “reduction of the thickness of the dermis compared with Crisaborole” value was “significantly reduce the thickness of the dermis of dermatitis mice (P≤0.01)”, the “reduction of the thickness of the epidermis compared with Crisaborole” value was “significantly reduce the thickness of the epidermis (P≤0.01)”, the “reduction of the thickness of the dermis compared with the compound Y5” value was “significantly reduce the thickness of the dermis of dermatitis mice (P≤0.01)” and the “reduction of the thickness of the epidermis compared with the compound Y5” value is “significantly reduce the thickness of the epidermis (P≤0.01)”. Also, in experiment [1], the Epidermal thickness came out at 68.21 ± 7.66 aa μm and the Dermis thickness amounted to 370.11 ± 24.60 a a μm. Further, on PDE4A enzyme, the remaining activity at 0.01 µM was determined as 6.41 ± 0.32%, the remaining activity at 0.1 µM turned out to be 1.83 ± 0.41% and the remaining activity at 1 µM was found to be 1.12 ± 0.99%.
Turning to `OB1OCc2cc(Oc3cc(C(F)(F)F)c4cc(C(F)(F)F)ccc4n3)ccc21` [PD-17], in experiment [1], the “reduction of the thickness of the dermis compared with Crisaborole” value is “significantly reduce the thickness of the dermis of dermatitis mice (P≤0.01)”, the “reduction of the thickness of the epidermis compared with Crisaborole” value is reported as “significantly reduce the thickness of the epidermis (P≤0.01)”, the “reduction of the thickness of the dermis compared with the compound Y5” value is recorded as “significantly reduce the thickness of the dermis of dermatitis mice (P≤0.01)” and the Epidermal thickness worked out at 80.76 ± 10.51 μm. Also, the Dermis thickness in experiment [1] was 380.74 ± 20.15 ^a a μm. At PDE4A enzyme, this compound displayed a remaining activity at 0.01 µM of 4.17 ± 0.99%, a remaining activity at 0.1 µM of 1.89 ± 0.6% and a remaining activity at 1 µM of 0.77 ± 0.39%.
For `N#Cc1ccc2nc(Cl)cc(Oc3ccc4c(c3)COB4O)c2c1` [PD-26], in experiment [1], the “reduction of the thickness of the dermis compared with Crisaborole” value is “significantly reduce the thickness of the dermis of dermatitis mice (P≤0.01)”, the “reduction of the thickness of the epidermis compared with Crisaborole” value is recorded as “significantly reduce the thickness of the epidermis of the dermatitis mice (P≤0.05)”, the Epidermal thickness was determined as 83.94 ± 7.63 μm and the Dermis thickness amounted to 408.97 ± 23.06 μm. At PDE4A enzyme, this compound returned a remaining activity at 0.01 µM of 12.8 ± 1.82%, a remaining activity at 0.1 µM of 7.23 ± 1.83% and a remaining activity at 1 µM of 2.04 ± 0.24%.
On to `OB1OCc2cc(Oc3ccc4cc(C(F)(F)F)ccc4n3)ccc21` [PD-6], for which, in experiment [1], the “reduction of the thickness of the dermis compared with Crisaborole” value is “significantly reduce the thickness of the dermis of dermatitis mice (P≤0.01)”, the “reduction of the thickness of the epidermis compared with Crisaborole” value is on record as “significantly reduce the thickness of the epidermis (P≤0.01)”, the “reduction of the thickness of the dermis compared with the compound Y5” value was “significantly reduce the thickness of the dermis of dermatitis mice (P≤0.01)” and the “reduction of the thickness of the epidermis compared with the compound Y5” value is “significantly reduce the thickness of the epidermis (P≤0.01)”. In addition, in experiment [1], the Epidermal thickness is 70.87 ± 14.43 ^aa μm and the Dermis thickness was 380.15 ± 22.54 ^a a μm. At PDE4A enzyme, the remaining activity at 0.01 µM was found to be 0.9 ± 0.23%, the remaining activity at 0.1 µM was found to be 0.6 ± 0.1% and the remaining activity at 1 µM was found to be 0.32 ± 0.13%.
Turning to `CCOC(=O)c1cccc2nc(Oc3ccc4c(c3)COB4O)ccc12` [PD-3], in experiment [1], the “reduction of the thickness of the dermis compared with Crisaborole” value is “significantly reduce the thickness of the dermis of dermatitis mice (P≤0.05)”, the Epidermal thickness amounted to 98.74 ± 9.63 μm and the Dermis thickness turned out to be 420.80 ± 30.55 μm. At PDE4A enzyme, this compound gave a remaining activity at 0.01 µM of 17.3 ± 1.19%, a remaining activity at 0.1 µM of 4.94 ± 1.56% and a remaining activity at 1 µM of 1.98 ± 0.47%.
Take `COC(=O)c1ccc2nc(Oc3ccc4c(c3)COB4O)ccc2c1` [PD-10]: in experiment [1], the “reduction of the thickness of the dermis compared with Crisaborole” value is “significantly reduce the thickness of the dermis of dermatitis mice (P≤0.01)”, the “reduction of the thickness of the epidermis compared with Crisaborole” value was “significantly reduce the thickness of the epidermis (P≤0.01)”, the Epidermal thickness came out at 92.17 ± 9.94 μm and the Dermis thickness is given as 406.74 ± 29.54 μm. Besides, at PDE4A enzyme, the remaining activity at 0.01 µM came to 10.8 ± 1.6%, the remaining activity at 0.1 µM is 2.45 ± 0.32% and the remaining activity at 1 µM came to 1.55 ± 0.67%.
For the compound `O=C(O)c1cccc2nc(Oc3ccc4c(c3)COB4O)ccc12` [PD-2], in experiment [1], the Epidermal thickness is reported as 100.26 ± 11.35 μm and the Dermis thickness stood at 439.76 ± 30.02 μm. At PDE4A enzyme, this compound came in with a remaining activity at 0.01 µM of 7.42 ± 2.11%, a remaining activity at 0.1 µM of 3.8 ± 0.76% and a remaining activity at 1 µM of 2.75 ± 0.51%.
Consider `N#Cc1ccc2nc(Oc3ccc4c(c3)COB4O)cc(C(F)(F)F)c2c1` [PD-9], for which, in experiment [1], the “reduction of the thickness of the dermis compared with Crisaborole” value is “significantly reduce the thickness of the dermis of dermatitis mice (P≤0.05)”, the “reduction of the thickness of the epidermis compared with Crisaborole” value was “significantly reduce the thickness of the epidermis of the dermatitis mice (P≤0.05)”, the Epidermal thickness is given as 97.25 ± 10.43 μm and the Dermis thickness stood at 413.25 ± 31.50 μm. For the same compound, on PDE4A enzyme, the remaining activity at 0.01 µM came out at 3.41 ± 0.45%, the remaining activity at 0.1 µM is 1.92 ± 0.39% and the remaining activity at 1 µM was 0.99 ± 0.85%.
As for `N#Cc1ccc2nc(Oc3ccc4c(c3)COB4O)ccc2c1` [PD-4], in experiment [1], the “reduction of the thickness of the dermis compared with Crisaborole” value is “significantly reduce the thickness of the dermis of dermatitis mice (P≤0.01)”, the “reduction of the thickness of the epidermis compared with Crisaborole” value was “significantly reduce the thickness of the epidermis (P≤0.01)”, the “reduction of the thickness of the dermis compared with the compound Y5” value is listed as “significantly reduce the thickness of the dermis of dermatitis mice (P≤0.01)” and the “reduction of the thickness of the epidermis compared with the compound Y5” value is “significantly reduce the thickness of the epidermis (P≤0.01)”. Moreover, in experiment [1], the Epidermal thickness is 70.42 ± 9.24 aa μm and the Dermis thickness is recorded as 375.06 ± 20.41 a a μm. In addition, at PDE4A enzyme, the remaining activity at 0.01 µM came to 6.17 ± 0.34%, the remaining activity at 0.1 µM was 2.49 ± 0.75% and the remaining activity at 1 µM was found to be 1.95 ± 0.18%.
In experiment [1], `N#Cc1ccc2nc(Oc3ccc4c(c3)COB4O)cc(F)c2c1` [PD-22] yielded an Epidermal thickness of 103.45 ± 11.74 μm and a Dermis thickness of 447.77 ± 33.37 μm. Also, on PDE4A enzyme, the remaining activity at 0.01 µM worked out at 7.16 ± 1.04%, the remaining activity at 0.1 µM was 3.06 ± 0.27% and the remaining activity at 1 µM was 1.78 ± 0.63%.

By remaining activity is commonly meant the signal under treatment as a percentage of the control signal. High values mean a small loss of activity, low ones a large loss of activity.
